Tests used:
Assay type in all cases: biochemical
plasma kallikrein = plasma kallikrein (Homo sapiens, UniProt P03952); experiment: Enzyme selectivity: plasma kallikrein (chromogenic substrate S-2302); details: chromogenic substrate S-2302, 37° C.
Procedure: (§1) Determination of Enzyme Selectivity
(§2) Selected compounds were further screened for inhibitory activity against other trypsin-like serine proteases using the appropriate enzyme and chromogenic substrate (Chromogenix AB). The activity against the following human enzymes was tested (substrate in brackets):—plasma kallikrein (S-2302), thrombin (S-2238), plasmin (S-2390) and trypsin (S-2222). The enzyme was incubated at 37° C. with the chromogenic substrate. Residual enzyme activity (initial rate of reaction) was determined by measuring the change in optical absorbance at 405 nm.

Human KLK1 = target: T1, Human KLK1 (Homo sapiens, UniProt P06870); experiment: Determination of the IC50 for KLK1 (fluorogenic substrate H-DVal-Leu-Arg-AFC); details: 37° C.
T1 construct: purchased Callbiochem (Calbiochem)
T1 sequence (P06870 25-262): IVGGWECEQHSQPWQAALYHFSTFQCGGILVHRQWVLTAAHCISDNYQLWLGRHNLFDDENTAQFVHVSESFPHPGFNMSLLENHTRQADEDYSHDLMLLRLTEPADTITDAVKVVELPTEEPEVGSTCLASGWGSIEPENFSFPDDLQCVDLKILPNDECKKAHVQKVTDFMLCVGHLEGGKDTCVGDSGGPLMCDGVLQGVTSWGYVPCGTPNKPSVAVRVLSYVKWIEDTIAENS
Summary of the method: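 Human KLK1 incubated at 37° C with fluorogenic substrate H-DVal-Leu-Arg-AFC and a range of test compound concentrations. Residual activity taken as initial reaction rate from absorbance change at 410 nm; IC50 derived from these rates.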

trypsin = experiment: Enzyme selectivity: trypsin (chromogenic substrate S-2222); details: human enzyme, chromogenic substrate S-2222, 37° C.
Procedure: as §1, §2

thrombin = thrombin (Homo sapiens, UniProt P00734); experiment: Enzyme selectivity: thrombin (chromogenic substrate S-2238); details: chromogenic substrate S-2238, 37° C.
Procedure: as §1, §2

plasmin = plasmin (Homo sapiens, UniProt P00747); experiment: Enzyme selectivity: plasmin (chromogenic substrate S-2390); details: chromogenic substrate S-2390, 37° C.
Chain of plasmin (P00747 581-810 limits assumed): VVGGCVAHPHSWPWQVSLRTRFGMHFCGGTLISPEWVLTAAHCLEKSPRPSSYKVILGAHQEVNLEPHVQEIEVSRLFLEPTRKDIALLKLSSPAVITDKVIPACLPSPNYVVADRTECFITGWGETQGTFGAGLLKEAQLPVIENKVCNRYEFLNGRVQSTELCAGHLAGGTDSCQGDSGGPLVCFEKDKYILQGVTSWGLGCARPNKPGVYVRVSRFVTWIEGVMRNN
Chain of plasmin (P00747 97-580 partner limits assumed): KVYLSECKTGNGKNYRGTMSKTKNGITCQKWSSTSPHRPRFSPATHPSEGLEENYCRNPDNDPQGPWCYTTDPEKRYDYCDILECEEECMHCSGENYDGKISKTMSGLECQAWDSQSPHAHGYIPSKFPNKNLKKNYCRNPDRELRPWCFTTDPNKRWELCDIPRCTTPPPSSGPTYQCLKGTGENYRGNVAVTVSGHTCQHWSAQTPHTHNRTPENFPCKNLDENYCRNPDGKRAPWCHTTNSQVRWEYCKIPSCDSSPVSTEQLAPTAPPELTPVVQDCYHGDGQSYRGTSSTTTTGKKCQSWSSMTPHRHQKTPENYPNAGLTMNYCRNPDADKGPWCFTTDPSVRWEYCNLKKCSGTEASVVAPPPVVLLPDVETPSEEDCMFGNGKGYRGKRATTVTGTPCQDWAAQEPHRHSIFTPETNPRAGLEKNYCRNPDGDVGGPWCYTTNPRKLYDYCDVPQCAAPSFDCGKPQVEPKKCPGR
Procedure: as §1, §2

Chain of plasma kallikrein (P03952 20-638): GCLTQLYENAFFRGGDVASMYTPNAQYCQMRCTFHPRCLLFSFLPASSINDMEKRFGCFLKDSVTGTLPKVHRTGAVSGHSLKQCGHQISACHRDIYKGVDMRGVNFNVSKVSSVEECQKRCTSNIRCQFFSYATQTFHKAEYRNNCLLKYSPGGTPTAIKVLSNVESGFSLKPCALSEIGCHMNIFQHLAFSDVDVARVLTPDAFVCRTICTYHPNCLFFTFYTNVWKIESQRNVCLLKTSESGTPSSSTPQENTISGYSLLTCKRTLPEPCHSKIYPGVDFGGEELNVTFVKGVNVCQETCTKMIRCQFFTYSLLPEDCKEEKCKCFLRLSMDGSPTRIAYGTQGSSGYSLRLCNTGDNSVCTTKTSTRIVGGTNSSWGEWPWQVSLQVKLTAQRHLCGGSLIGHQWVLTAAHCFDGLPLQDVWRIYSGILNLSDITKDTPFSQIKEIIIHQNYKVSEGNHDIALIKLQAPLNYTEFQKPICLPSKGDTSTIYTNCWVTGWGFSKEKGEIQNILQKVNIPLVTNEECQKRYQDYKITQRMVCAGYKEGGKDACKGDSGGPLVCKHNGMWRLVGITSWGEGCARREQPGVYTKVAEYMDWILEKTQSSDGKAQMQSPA

Row | Structure (SMILES) | IC50 (plasma kallikrein) | IC50 (Human KLK1) | IC50 (trypsin) | IC50 (thrombin) | IC50 (plasmin)
1 | CC(C)N(C)[C@@H](C)C(=O)N[C@@H](CC1CCCCC1)C(=O)NCc1ccc(N)nc1 [Example 381, (S)—N-{(S)-1-[(6-Amino-pyridin-3-ylmethyl)-carbamoyl]-2-cyclohexyl-ethyl}-2-(isopropyl-methyl-amino)-propionamide] | > 10 µM | 0.0011 µM | > 10 µM | > 10 µM | > 10 µM
2 | CCN(CC)[C@@H](C)C(=O)N[C@@H](CC1CCCCC1)C(=O)NCc1ccc(N)nc1 [Example 390, (S)—N-{(S)-1-[(6-Amino-pyridin-3-ylmethyl)-carbamoyl]-2-cyclohexyl-ethyl}-2-diethylamino-propionamide] | > 10 µM | 0.0027 µM | > 10 µM | > 10 µM | > 10 µM
3 | CCC(C)[C@H](C(=O)N[C@@H](Cc1ccc(Cl)c(Cl)c1)C(=O)NCc1ccc(N)nc1)N(C)C (stereo partly drawn) [Example 398, (R)-2-Dimethylamino-3-methyl-pentanoic acid [(S)-1-[(6-amino-pyridin-3-ylmethyl)-carbamoyl]-2-(3,4-dichloro-phenyl)-ethyl]-amide] | > 10 µM | 0.00082 µM | > 10 µM | > 10 µM | > 10 µM
4 | CN(C)[C@H](Cc1ccccc1)C(=O)N[C@@H](Cc1ccc(Cl)c(Cl)c1)C(=O)NCc1ccc(N)nc1 [Example 400, (R)—N-[(S)-1-[(6-Amino-pyridin-3-ylmethyl)-carbamoyl]-2-(3,4-dichloro-phenyl)-ethyl]-2-dimethylamino-3-phenyl-propionamide] | > 10 µM | 0.0017 µM | > 10 µM | > 10 µM | > 10 µM
5 | CC(C)N(C)[C@@H](C)C(=O)N(C)[C@@H](CC1CCCCC1)C(=O)NCc1ccc(N)nc1 [Example 437, (S)—N-{(S)-1-[(6-Amino-pyridin-3-ylmethyl)-carbamoyl]-2-cyclohexyl-ethyl}-2-(isopropyl-methyl-amino)-N-methyl-propionamide] | > 10 µM | 0.0042 µM | > 10 µM | > 10 µM | > 10 µM
